Laboratory results as given in patent US20090012133A1, “Polymorphic Form of -Acetic Acid” (SMITHKLINE BEECHAM CORPORATION, priority 2006, published 2009).

Legend:
[1] = stability of the crystal form at ambient temperatures; type: physicochemical
[2] = hygroscopicity of the crystalline form; type: physicochemical

stability of crystal form [1]: stable | hygroscopic nature of crystalline form [2]: non-hygroscopic
Compound: Cc1cc(SCc2sc(-c3ccc(C(F)(F)F)cc3)nc2C)ccc1OCC(=O)O [Form 7, {2-methyl-4-[4-methyl-2-(4-trifluoromethylphenyl)thiazol-5-ylmethylthio]phenoxy}-acetic acid]
